Assay results from US20260217698A1 (BEYANG THERAPEUTICS CO., LTD., priority 2022, published 2026).
Values after ≈ are worked out from the molar mass of the structure shown. Where two headings read alike, the source gives them in different places.

Legend:
[1] = Binding capacity of compounds to melanin; type: in vitro ADME, cuttlefish (Sepia officinalis)
Procedure, shortened: (§1)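 Compound (2 μM final) incubated with washed Sepia melanin (1 mg/mL, PBS pH 7.4) 2 h at 37° C with shaking; PBS with 0.1% BSA served as blank. Supernatants quantified by LC-MS/MS; bound fraction Fb derived from melanin versus blank concentration.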

[2] = system: melanin; assay: Binding capacity of compounds to melanin; type: in vitro ADME, cuttlefish (Sepia officinalis); conditions: cuttlefish (Sepia officinalis), melanin suspension (1 mg/mL); 1 mg/mL melanin in PBS pH 7.4, 2 μM compound, 2 h at 37° C.; read-out: Fu % (percentage of free drug)
Procedure, shortened: as §1

[3] = system: HUVEC cells; assay: Inhibition of VEGF-induced HUVEC cell proliferation, CellTiter Glo; type: cell-based; conditions: Homo sapiens, 20 ng/ml VEGF, 72 hours
Procedure, shortened: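 HUVEC (4000/well) serum-starved overnight in RPMI-1640 with 5% FBS, compound added 1 h before VEGF (20 ng/ml final in controls). After 72 h at 37 °C, viable cells were quantified by CellTiter-Glo luminescence; % inhibition fitted against log concentration, DMSO+VEGF wells as high control and cell-free wells as low.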

[4] = system: male black-banded Dutch rabbits
Excerpt: The binding of the compound to melanin may affect ocular pharmacokinetics after topical administration. […] In such cases, the compound may bind to melanin tissues in the posterior segment (retinal pigment epithelium, choroid) or anterior segment (ciliary body, iris) of the eye.

[5] = rabbit
Description: We used male Dutch black-banded rabbits to assess the MTD of the compounds administered in eye drops.
Male Dutch black-banded rabbits (weighing 1.5 kg to 2.5 kg) were purchased from an eligible supplier.
A total of 8 rabbits animals with good health conditions and normal eyes (without abnormalities such as trauma, congestion, redness and swelling) were randomly divided into 4 groups. […] Eye drop administration was conducted for two consecutive days, 3 times a day, at an interval of 6±0.5 hours. Before administration, the status of the dosing preparation was inspected, and its homogeneity was ensured by means of vortexing, stirring, or shaking. Before each administration, the states of rabbit eyes were observed, including but not limited to eye color, substances around the eyes, conjunctival swelling, eye exudate, discharge, cornea, pupillary reflex, etc. Subsequently, the toxicity risk assessment for six consecutive days of eye drop administration was further conducted. A total of 8 rabbits were randomly divided into 2 groups. […] Eye drop administration was conducted 3 times a day, at an interval of 6±0.5 hours.

[6] = Solubility test in buffer, LC-MS; type: physicochemical; conditions: aqueous buffer, thermodynamic from solid, room temperature, shaking 8 h, pH not given (method: pH 2.0, 6.5, 7.4)
Procedure, shortened: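 Compound at 2 mg/mL in buffers of pH 2.0, 6.5 and 7.4, sonicated, shaken 8 h at room temperature, then centrifuged at 13,000 rpm. Supernatant quantified by LC-MS against a 3–5 point calibration.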

NC(=O)c1c(OCc2c(F)cc(Br)cc2F)nsc1NC(=O)NCCCCN1CCCC1 [PAN90806]
Percentage of free drug with respect to melanin, comparison in words [1]: lower percentage of free drug
fraction unbound at 2 h, 2 μM [2]: 0.0129
IC50 [3]: 76.8 nM
maximum tolerated dose (MTD) ([4]; eye drops to rabbits for six consecutive days): 50 μg/eye
maximum tolerated dose (MTD) ([4]; eye drops, male black-banded Dutch rabbits, third day after eye drop administration): 100 μg/eye
Eye observations ([5]; 100 μg/eye, six consecutive days, seventh day): ocular toxicity (corneal opacity and conjunctival swelling, or corneal edema and conjunctival hyperemia, or ocular discharge) was observed in all the 4 rabbits
MTD on the third day of eye drop administration ([5]; eye drops 3 times a day, both eyes): 100 μg/eye
MTD on the eighth day of eye drop administration ([5]; six consecutive days of eye drops, 3 times a day): 50 μg/eye
solubility at 8 h [6]: 124 µg/mL (≈ 234 µM)
